For orientation: IC50 means the concentration at which inhibition is half-maximal. The low end stands for higher potency, the high end for lower potency.

Bounds are passed on as bounds.

One assay has as its target T1, human LXRα (Homo sapiens, UniProt Q13133).
T1 construct: biotin (biotinylated); made in house; host or cells: E. coli (crude extract)
T1 sequence (Q13133 1-447): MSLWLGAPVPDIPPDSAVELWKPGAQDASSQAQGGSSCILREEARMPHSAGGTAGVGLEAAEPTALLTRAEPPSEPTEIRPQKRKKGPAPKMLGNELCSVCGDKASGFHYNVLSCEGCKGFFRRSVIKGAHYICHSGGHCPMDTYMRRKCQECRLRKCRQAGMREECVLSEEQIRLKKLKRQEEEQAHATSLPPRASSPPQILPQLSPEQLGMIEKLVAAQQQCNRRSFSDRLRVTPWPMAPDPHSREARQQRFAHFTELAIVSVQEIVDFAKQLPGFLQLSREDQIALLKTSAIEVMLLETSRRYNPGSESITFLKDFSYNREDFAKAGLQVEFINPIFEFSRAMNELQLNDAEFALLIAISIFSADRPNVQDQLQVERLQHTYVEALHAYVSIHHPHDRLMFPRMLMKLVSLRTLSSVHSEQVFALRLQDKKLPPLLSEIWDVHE
The experiment in a line: Ligand-binding test procedure for human LXRα (3H T0901317 tracer, flash plates). As to conditions: biotinylated hLXRα from E. coli extract; tracer 3H T0901317. As for the experimental part: II. Ligand-Binding Test Procedure for Human LXRα.
Receptor source: E. coli extract from cells expressing biotinylated hLXRα. Extract was made in a similar buffer as above, but with 50 mM TRIS.
(§1) Washed streptavidin and coated flash plates with wash buffer. Diluted receptor extract to give Bmax ˜4000 cpm and add to the wells. Wrapped the plates in aluminum foil and stored them at +4° C. over night.
(§2) Made a dilution series in DMSO of the test ligands. Made a 5 nM solution of the radioactive tracer in buffer. Mixed 250 μl diluted tracer with 5 μl of the test ligand from each concentration of the dilution series. Washed the receptor-coated flash plates. Added 200 μl per well of the ligand/radiolabel mixture to the receptor-coated flash plates. Wrapped the plates in aluminum foil and incubate at +4° C. over night.
(§3) Aspirated wells, and wash the flashed plates. Sealed the plate. Measured the remaining radioactivity in the plate.

In a further assay the target is T2, human LXRβ (Homo sapiens, UniProt P55055).
T2 construct: biotin (biotinylated); made in house; host or cells: E. coli (crude extract)
T2 sequence (P55055 1-460): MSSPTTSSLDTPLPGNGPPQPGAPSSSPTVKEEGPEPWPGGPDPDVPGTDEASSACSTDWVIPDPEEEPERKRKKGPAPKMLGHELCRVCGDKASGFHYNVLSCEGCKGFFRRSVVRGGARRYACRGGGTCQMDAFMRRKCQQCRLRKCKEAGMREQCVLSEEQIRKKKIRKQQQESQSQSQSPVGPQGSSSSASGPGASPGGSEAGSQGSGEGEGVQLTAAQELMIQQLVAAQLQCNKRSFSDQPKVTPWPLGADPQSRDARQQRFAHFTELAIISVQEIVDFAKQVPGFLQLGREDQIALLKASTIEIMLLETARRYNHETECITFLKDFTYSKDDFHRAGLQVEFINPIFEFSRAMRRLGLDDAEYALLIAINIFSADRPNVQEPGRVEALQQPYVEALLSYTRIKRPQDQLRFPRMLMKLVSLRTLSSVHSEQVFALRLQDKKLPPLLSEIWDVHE
Briefly: Ligand-binding test procedure for human LXRβ (3H T0901317 tracer, flash plates). As to conditions: biotinylated hLXRβ from E. coli extract; tracer 3H T0901317. As for the experimental part: I. Ligand-Binding Test Procedure for Human LXRβ.
Receptor source: E. coli extract from cells expressing biotinylated hLXRβ. Extract was made in a similar buffer as above, but with 50 mM TRIS.
as §1, §2, §3

In the case of `CCS(=O)(=O)c1cccc(Oc2ccc(-c3c(C(C)C)nc4c(Cl)cccn34)cc2)c1` [Example 122, 8-chloro-3-{4-[3-(ethylsulfonyl)phenoxy]phenyl}-2-(1-methylethyl)imidazo[1,2-a]pyridine], the IC50 is more than 1000 nM on human LXRα and 345 nM at human LXRβ.
Turning to `CC(C)c1nc2c(Cl)cccn2c1-c1cccc(Oc2ccc(S(N)(=O)=O)cc2)c1` [Example 99, 4-[3-(8-chloro-2-isopropylimidazo[1,2-a]pyridin-3-yl)phenoxy]benzenesulfonamide], the IC50 at human LXRα and on human LXRβ was more than 1000 nM in each case.
`Cc1nc2c(C(F)(F)F)cccn2c1-c1cccc(Oc2cc(F)cc(S(C)(=O)=O)c2)c1` [Example 15, 3-{3-[3-fluoro-5-(methylsulfonyl)phenoxy]phenyl}-2-methyl-8-(trifluoromethyl)imidazo[1,2-a]pyridine]: the IC50 at human LXRα came to 1880 nM; on human LXRβ, 119 nM.
Turning to `CCS(=O)(=O)c1cccc(Oc2cccc(-c3c(C(C)(C)C)nc4c(C(F)(F)F)cccn34)c2)c1` [Example 76, 2-tert-butyl-3-{3-[3-(ethylsulfonyl)phenoxy]phenyl}-8-(trifluoromethyl)imidazo[1,2-a]pyridine], the half-inhibitory concentration (IC50) at human LXRα was 135 nM; on human LXRβ it was 5.6 nM.
As for `CC(C)(C)c1nc2c(C#N)cccn2c1-c1cccc(Oc2cccc(CS(C)(=O)=O)c2)c1` [Example 116, 2-tert-butyl-3-(3-{3-[(methylsulfonyl)methyl]phenoxy}phenyl)imidazo[1,2-a]pyridine-8-carbonitrile], the IC50 at human LXRα was more than 1000 nM; at human LXRβ, 970 nM.
For the compound `CCc1nc2c(C#N)cccn2c1-c1cccc(Oc2cccc(S(N)(=O)=O)c2)c1` [Example 50, 3-[3-(8-cyano-2-ethylimidazo[1,2-a]pyridin-3-yl)phenoxy]benzenesulfonamide], the IC50 at human LXRα came to 14700 nM; at human LXRβ it was 940 nM.
As for `CC(C)c1nc2c(C(F)(F)F)cccn2c1-c1cccc(Oc2cccc(S(=O)(=O)C(C)C)c2)c1` [Example 27, 2-isopropyl-3-(3-(3-(isopropylsulfonyl)phenoxy)phenyl)-8-(trifluoromethyl)imidazo[1,2-a]pyridine], the IC50 at human LXRα came to 144 nM; at human LXRβ, 8 nM.
For `CC(C)c1nc2c(C#N)cccn2c1-c1cccc(OCc2ccc(S(C)(=O)=O)cc2)c1` [Example 59, 2-isopropyl-3-(3-{[4-(methylsulfonyl)benzyl]oxy}phenyl)imidazo[1,2-a]pyridine-8-carbonitrile] the same measures were more than 1000 nM and more than 1000 nM.
For the compound `CC(C)c1nc2c(C#N)cccn2c1-c1cccc(Oc2cccc(CS(C)(=O)=O)c2)c1` [Example 115, 2-isopropyl-3-(3-{3-[(methylsulfonyl)methyl]phenoxy}phenyl)imidazo[1,2-a]pyridine-8-carbonitrile], the IC50 at human LXRα and at human LXRβ was more than 1000 nM each time.
For `CC(C)c1nc2c(C(F)(F)F)cccn2c1-c1cccc(OCc2ccc(S(C)(=O)=O)cc2)c1` [Example 56, 2-isopropyl-3-(3-{[4-(methylsulfonyl)benzyl]oxy}phenyl)-8-(trifluoromethyl)imidazo[1,2-a]pyridine], the values for the IC50 on human LXRα and at human LXRβ were 36500 nM and 4190 nM, respectively.
For `CC(C)c1nc2c(C(F)(F)F)cccn2c1-c1cccc(Oc2cccc(S(C)(=O)=O)c2)n1` [Example 89, 2-isopropyl-3-{6-[3-(methylsulfonyl)phenoxy]pyridin-2-yl}-8-(trifluoromethyl)imidazo[1,2-a]pyridine], the IC50 at human LXRα and on human LXRβ was more than 1000 nM each time.
As to `CC(C)c1nc2c(Cl)cccn2c1-c1ccc(Oc2cccc(S(C)(=O)=O)c2)cc1` [Example 121, 8-chloro-2-(1-methylethyl)-3-{4-[3-(methylsulfonyl)phenoxy]phenyl}imidazo[1,2-a]pyridine], the 50% inhibitory concentration (IC50) at human LXRα was more than 1000 nM; on human LXRβ, 460 nM.
As to `CC(C)S(=O)(=O)c1cccc(Oc2cccc(-c3c(C(C)(C)C)nc4c(C(F)(F)F)cccn34)c2)c1` [Example 77, 2-tert-butyl-3-{3-[3-(isopropylsulfonyl)phenoxy]phenyl}-8-(trifluoromethyl)imidazo[1,2-a]pyridine], the IC50 at human LXRα turned out to be 160 nM; on human LXRβ, 6.1 nM.
In the case of `CCc1nc2c(C#N)cccn2c1-c1cccc(Oc2cccc(CS(C)(=O)=O)c2)c1` [Example 118, 2-ethyl-3-(3-{3-[(methylsulfonyl)methyl]phenoxy}phenyl)imidazo[1,2-a]pyridine-8-carbonitrile], the IC50 at human LXRα and at human LXRβ was more than 1000 nM in each case.
With `CC(C)c1nc2c(Cl)cccn2c1-c1cccc(OCc2ccc(S(C)(=O)=O)cc2)c1` [Example 57, 8-chloro-2-isopropyl-3-(3-{[4-(methylsulfonyl)benzyl]oxy}phenyl)imidazo[1,2-a]pyridine], the IC50 at human LXRα was more than 1000 nM; on human LXRβ, 8430 nM.
For the compound `CCc1nc2c(C(F)(F)F)cccn2c1-c1cccc(Oc2ccc(C#N)c(S(C)(=O)=O)c2)c1` [Example 141, 4-{3-[2-ethyl-8-(trifluoromethyl)imidazo[1,2-a]pyridin-3-yl]phenoxy}-2-(methylsulfonyl)benzonitrile], the IC50 at human LXRα was more than 1000 nM; at human LXRβ, 700 nM.
Regarding `CCc1nc2c(C(F)(F)F)cccn2c1-c1cccc(Oc2cccc(S(=O)(=O)CCCC#N)c2)c1` [Example 140, 4-[(3-{3-[2-ethyl-8-(trifluoromethyl)imidazo[1,2-a]pyridin-3-yl]phenoxy}phenyl)sulfonyl]butanenitrile], the IC50 at human LXRα is 910 nM; at human LXRβ, 69 nM.
As for `CC(C)c1nc2c(C(F)(F)F)cccn2c1-c1ccc(-c2ccc(S(C)(=O)=O)cc2)cc1` [Example 94, 2-isopropyl-3-(4′-(methylsulfonyl)biphenyl-4-yl)-8-(trifluoromethyl)imidazo[1,2-a]pyridine], the IC50 on human LXRα and at human LXRβ was more than 1000 nM in each case.
In the case of `CC(C)S(=O)(=O)c1cccc(Oc2cccc(-c3c(C(C)(C)C)nc4c(C#N)cccn34)c2)c1` [Example 80, 2-tert-butyl-3-{3-[3-(isopropylsulfonyl)phenoxy]phenyl}imidazo[1,2-a]pyridine-8-carbonitrile], the results for the IC50 at human LXRα and at human LXRβ were 526 nM and 16.3 nM, respectively.
For `CCc1nc2c(C(F)(F)F)cccn2c1-c1cccc(Oc2cccc(S(C)(=O)=O)c2)n1` [Example 88, 2-ethyl-3-{6-[3-(methylsulfonyl)phenoxy]pyridin-2-yl}-8-(trifluoromethyl)imidazo[1,2-a]pyridine] the same measures were more than 1000 nM and more than 1000 nM.
On to `CCc1nc2c(C(F)(F)F)cccn2c1-c1ccc(COc2cccc(S(C)(=O)=O)c2)cc1` [Example 111, 2-ethyl-3-(4-{[3-(methylsulfonyl)phenoxy]methyl}phenyl)-8-(trifluoromethyl)imidazo[1,2-a]pyridine], for which the half-maximal inhibitory concentration (IC50) at human LXRα and at human LXRβ was more than 1000 nM each time.
As to `CCc1nc2c(C(F)(F)F)cccn2c1-c1ccc(-c2cccc(S(C)(=O)=O)c2)cc1` [Example 95, 2-ethyl-3-(3′-(methylsulfonyl)biphenyl-4-yl)-8-(trifluoromethyl)imidazo[1,2-a]pyridine], the IC50 at human LXRα amounted to 2640 nM; on human LXRβ, 135 nM.
The matching figures for `Cc1nccn1Cc1nc2c(C(F)(F)F)cccn2c1-c1cccc(Oc2cccc(S(C)(=O)=O)c2)c1` [Example 130, 2-[(2-methyl-1H-imidazol-1-yl)methyl]-3-{3-[3-(methylsulfonyl)phenoxy]phenyl}-8-(trifluoromethyl)imidazo[1,2-a]pyridine]: more than 1000 nM and 230 nM.
As to `CCc1nc2c(Cl)cccn2c1-c1cccc(Oc2cccc(S(=O)(=O)N(Cc3ccc(OC)cc3)Cc3ccc(OC)cc3)c2)c1` [Example 42, 3-[3-(8-chloro-2-ethylimidazo[1,2-a]pyridin-3-yl)phenoxy]-N,N-bis(4-methoxybenzyl)benzenesulfonamide], the IC50 on human LXRα came to 920 nM; on human LXRβ it was 409 nM.

Values taken from US20110112135A1, “Imidazo [1,2-A] Pyridine Compounds” (priority 2007, published 2011).
